{"source": "patent US11890350B2", "about": "“Steroid acid-peptide based cytotoxic compounds” (DEFENCE THERAPEUTICS INC., priority 2021, dated 2024)", "key": {"EL4 lymphoma [1]": {"system": "EL4 lymphoma", "test": "EL4 tumor model in vivo", "design": "species or system C57BL/6 mice", "details": "for survival at day 40 / tumor growth: alone", "excerpt": "FIGS. 4A to 4F show the antitumoral effect of CA-SV40 on EL4 lymphoma in vivo. […] EL4 tumors without any treatment (i.e., PBS) are shown in black, whereas anti-PD-1 treatment alone is in orange and anti-CTLA-4 treatment alone is in purple. […]\nFemale C57BL/6 mice (n=10/group) received a SC injection of 5×10^5 EL4 cells at Day 0. Five days later (appearance of palpable tumors˜40-60 mm^3), mice were SC-injected with PBS, CA-SV40, anti-PD-1, or anti-CTLA4, alone or in combination.\nThe apoptosis observations obtained in vitro prompted us to explore whether CA-SV40 administration to mice with pre-established tumors can trigger a therapeutic effect. First, CA-SV40 was delivered alone using three different doses (47 μM, 95 μM, and 190 μM) every 48 h following the appearance of palpable tumors (EL4) (FIG. 4A) for a total of 5 injections. […] To further improve this response, we next combined the highest tested CA-SV40 dose (delivered daily instead of every 48 h) with the immune-checkpoint inhibitors (ICIs) anti-PD-1 or anti-CTLA4 (FIG. 4D). […]"}, "EL4 lymphoma [2]": {"system": "EL4 lymphoma", "test": "PI / Annexin-V co-staining time course", "type": "cell-based", "procedure": "(§1) Percentages of double-positive stained cells is shown, which represents late apoptotic cells.\n(§2) To further uncover the mechanism of cell death, we next investigated whether CA-SV40-triggered apoptosis is strictly occurring in the absence of necrosis. To do so, a co-staining experiment was conducted using propidium iodine (PI) and Annexin-V at different time points. […] Since a large number of anti-cancer molecules can trigger cell death via release or de novo production of reactive oxygen species (ROS), we next stained the EL4 lymphoma cells treated with CA-SV40 at the IC50 dose with MitoSOX™. […] This observation led us to test whether treatment with MitoTempo™ (blocking mitochondria-specific ROS) or N-acetylcysteine (NAC—building block for GSH) rescue from CA-SV40-triggered cell death."}, "mesenchymal stem cells": {"system": "mesenchymal stem cells", "test": "Annexin V apoptosis assessment on normal cells", "type": "cell-based", "details": "190 μM"}, "macrophages": {"system": "macrophages", "test": "Annexin V apoptosis assessment on normal cells", "type": "cell-based", "details": "190 μM"}, "EL4 lymphoma cells [3]": {"system": "EL4 lymphoma cells", "test": "Annexin V apoptosis assessment by flow cytometry", "type": "cell-based", "details": "190 μM", "procedure": "Annexin-V staining percentage after treatment with different Cholic acid-NLS conjugates (190 μM) is shown relative to live EL4 lymphoma cells (i.e., PBS treated cancer cells) by flow cytometry."}, "EL4 lymphoma cells [4]": {"system": "EL4 lymphoma cells", "test": "MitoSOX staining for ROS production", "type": "cell-based", "details": "CA-SV40 at the IC50 dose, up to 8 h", "procedure": "as §1, §2"}, "[5]": {"system": "bone marrow-derived dendritic cells", "test": "Annexin V apoptosis assessment on normal cells", "type": "cell-based, mouse", "details": "190 μM", "procedure": "Mouse bone marrow derived DCs (BMDCs) were generated by flushing the whole marrow from mouse femurs using RPMI™ 1640 supplemented with 10% fetal bovine serum (FBS), 50 U/mL Penicillin-Streptomycin, 2 mM L-glutamine, 10 mM HEPES, 1% MEM Non-essential Amino Acids, 1 mM Sodium Pyruvate, 0.5 mM β-mercaptoethanol. Following red blood cell lysis, cells were then cultured in media supplemented with 50 ng/mL murine recombinant GM-CSF. The media was changed on days 2, 4, 6 and 8. On day 9, the media was replaced to include recombinant murine GM-CSF and LPS from Escherichia coli O111 (1 ng/mL) to stimulate DC maturation. Mature DCs were assessed by flow cytometry for their surface expression of CD3, CD19, NK1.1, CD11c, CD80, CD86, and I-A^b."}, "EL4 cells": {"system": "EL4 cells", "test": "Cytochrome C cargo release cell death assay", "type": "cell-based", "procedure": "FIGS. 3A and 3B show the ability of CA-SV40 to promote cargo release in the cytoplasm of target cells.\nCytochrome C is a protein that is normally entrapped in the mitochondria but can be released upon intrinsic signaling known to trigger apoptosis. An experiment was designed where recombinant cytochrome C was added to EL4 cells either alone or in combination with CA-SV40 (47 μM) (FIG. 3A). […] In addition, it may explain the increase in intracellular ROS levels as it can damage endosomes/vesicles responsible for intracellular ROS transport."}, "4T1 breast cancer cells": {"system": "4T1 breast cancer cells", "test": "Annexin V apoptosis assessment by flow cytometry", "type": "cell-based", "details": "4T-1; 190 μM"}, "[6]": {"system": "CT-26 colon carcinoma cells", "test": "Annexin V apoptosis assessment by flow cytometry", "type": "cell-based", "details": "190 μM"}, "EL4 lymphoma cells [7]": {"system": "EL4 lymphoma cells", "test": "Rescue from CA-SV40-triggered apoptosis by ROS blockers", "type": "cell-based", "procedure": "as §1, §2"}, "EL4 T-cell lymphoma": {"system": "EL4 T-cell lymphoma", "test": "Cell death (kill) curve analysis by flow cytometry", "details": "alone, at any of the concentrations tested"}, "[8]": {"details": "highest tested dose (190 μM), every 48 h, 5 injections"}}, "note": "Peptide text beside a SMILES is read from it. * marks the point of attachment. Cholyl = C[C@H](CCC(=O)*)[C@H]1CC[C@H]2[C@@H]3[C@H](O)C[C@@H]4C[C@H](O)CC[C@]4(C)[C@H]3C[C@H](O)[C@]12C"}
{"molecule": "CSCC[C@H](NC(=O)[C@H](CS)NC(=O)CC[C@@H](C)[C@H]1CC[C@H]2[C@@H]3[C@H](O)C[C@@H]4C[C@H](O)CC[C@]4(C)[C@H]3C[C@H](O)[C@]12C)C(=O)NCC(=O)N[C@@H](CCCNC(=N)N)C(=O)N[C@H](C(=O)N[C@@H](CCCNC(=N)N)C(=O)N[C@H](C(=O)N[C@@H](CCCCN)C(=O)N[C@H](C(=O)N[C@H](C(=O)N[C@@H](CCCCN)C(=O)N[C@@H](CCCCN)C(=O)N[C@@H](C)C(=O)N[C@@H](C)C(=O)NCC(=O)NCC(=O)O)C(C)C)[C@@H](C)O)[C@@H](C)O)C(C)C", "note": "[CA-NLS1 RPS17] (Cholyl-CMGRVRTKTVKKAAGG-OH; N-terminus and C-terminus assumed)", "values": [{"measurement": "survival at day 40", "setting": "EL4 lymphoma [1]; [8]", "value": 20, "unit": "%"}, {"measurement": "tumor growth", "setting": "EL4 lymphoma [1]; [8]", "value": "significantly delayed tumor growth"}]}
{"molecule": "CC[C@H](C)[C@H](NC(=O)[C@H](CCCNC(=N)N)NC(=O)[C@H](CCCCN)NC(=O)[C@H](CCSC)NC(=O)[C@H](CC(C)C)NC(=O)[C@H](Cc1c[nH]cn1)NC(=O)[C@@H](NC(=O)[C@@H](NC(=O)[C@H](Cc1ccc(O)cc1)NC(=O)CNC(=O)[C@H](C)NC(=O)[C@@H](NC(=O)[C@H](CCCCN)NC(=O)[C@H](CC(N)=O)NC(=O)[C@H](CCCNC(=N)N)NC(=O)[C@H](CC(C)C)NC(=O)[C@H](CCCCN)NC(=O)[C@H](CCCCN)NC(=O)[C@H](CO)NC(=O)[C@H](CS)NC(=O)CC[C@@H](C)[C@H]1CC[C@H]2[C@@H]3[C@H](O)C[C@@H]4C[C@H](O)CC[C@]4(C)[C@H]3C[C@H](O)[C@]12C)[C@@H](C)CC)C(C)C)[C@@H](C)O)C(=O)O", "note": "[CA-NLS3 RPS17] (Cholyl-CSKKLRNKIAGYVTHLMKRI-OH; N-terminus and C-terminus assumed)", "values": [{"measurement": "survival at day 40", "setting": "EL4 lymphoma [1]; [8]", "value": 20, "unit": "%"}, {"measurement": "tumor growth", "setting": "EL4 lymphoma [1]; [8]", "value": "significantly delayed tumor growth"}]}
{"molecule": "CC(C)[C@H](NC(=O)[C@H](CCCCN)NC(=O)[C@H](CCCNC(=N)N)NC(=O)[C@H](CCCCN)NC(=O)[C@H](CCCCN)NC(=O)[C@H](CCCCN)NC(=O)[C@@H]1CCCN1C(=O)CNC(=O)[C@H](Cc1ccc(O)cc1)NC(=O)CNC(=O)[C@H](CS)NC(=O)CC[C@@H](C)[C@H]1CC[C@H]2[C@@H]3[C@H](O)C[C@@H]4C[C@H](O)CC[C@]4(C)[C@H]3C[C@H](O)[C@]12C)C(=O)NCC(=O)NCC(=O)O", "note": "[CA-SV40] (Cholyl-CGYGPKKKRKVGG-OH; N-terminus and C-terminus assumed)", "values": [{"measurement": "time at which apoptosis started occurring post-treatment", "setting": "EL4 lymphoma [2]; PI/Annexin-V", "value": 1, "unit": "h"}, {"measurement": "time to complete death", "setting": "EL4 lymphoma [2]; PI/Annexin-V", "value": 8, "unit": "h"}, {"measurement": "necrotic cells (PI+/Annexin V−)", "setting": "EL4 lymphoma [2]; time course", "value": "no necrotic cells"}, {"measurement": "apoptosis in normal cells", "setting": "mesenchymal stem cells", "value": "induce apoptosis"}, {"measurement": "apoptosis in normal cells", "setting": "macrophages", "value": "induce apoptosis"}, {"measurement": "cell death through apoptosis (Annexin V staining)", "setting": "EL4 lymphoma cells [3]", "value": "triggers cell death through apoptosis"}, {"measurement": "cytotoxicity compared with CA-GWG-SV40", "setting": "EL4 lymphoma cells [3]", "value": "notably higher"}, {"measurement": "ROS production (MitoSOX signal)", "setting": "EL4 lymphoma cells [4]", "value": "time-dependent ROS production"}, {"measurement": "antitumoral response", "setting": "EL4 lymphoma [1]; highest dose daily, combined with anti-PD-1 or anti-CTLA4, vs CA-SV40 alone", "value": "significantly enhanced the antitumoral response"}, {"measurement": "tumor growth", "setting": "EL4 lymphoma [1]; highest dose delivered daily", "value": "significant delays in tumor growth"}, {"measurement": "tumor growth", "setting": "EL4 lymphoma [1]; [8]", "value": "significantly delayed tumor growth"}, {"measurement": "apoptosis in normal cells", "setting": "[5]", "value": "induce apoptosis"}, {"measurement": "increase in cell death", "setting": "EL4 cells; CA-SV40 47 μM combined with cytochrome C", "value": "three-fold"}, {"measurement": "cell death", "setting": "EL4 cells; CA-SV40 47 μM in combination with cytochrome C", "value": 61, "unit": "%"}, {"measurement": "cell death", "setting": "EL4 cells; before combination (weak CA-SV40 dose, 47 μM)", "value": 19, "unit": "%"}, {"measurement": "cell death through apoptosis (Annexin V staining)", "setting": "4T1 breast cancer cells", "value": "triggers cell death through apoptosis"}, {"measurement": "cell death through apoptosis (Annexin V staining)", "setting": "[6]", "value": "triggers cell death through apoptosis"}]}
{"molecule": "CC(=O)N[C@@H](CS)C(=O)O", "note": "[NAC, N-acetylcysteine]", "values": [{"measurement": "rescue from CA-SV40-triggered apoptosis", "setting": "EL4 lymphoma cells [7]; CA-SV40 at IC50 dose", "value": "completely blocked apoptosis"}, {"measurement": "rescue from CA-SV40-triggered apoptosis", "setting": "EL4 lymphoma cells [7]; CA-SV40 at higher doses (IC100)", "value": "incomplete but significant blockade"}]}
{"molecule": "SV40 NLS: NLS from SV-40 large T-antigen (e.g., PKKKRKV), unconjugated negative control", "values": [{"measurement": "cytotoxic activity", "setting": "EL4 T-cell lymphoma", "value": "did not exhibit any cytotoxic activity"}]}
{"molecule": "cytochrome C: recombinant cytochrome C protein, cargo added to EL4 cells [reference compound]", "values": [{"measurement": "cell death", "setting": "EL4 cells; recombinant cytochrome C alone", "value": "did not trigger cell death"}]}
